Data taken from patent US4518789A, “Phenyl alpha-acyloxyacetamide derivatives and their therapeutic use” (priority 1983, dated 1985).

tested on: itch provoked by papain or histamine dihydrochloride; assay: Anti-pruritic effect on normal human skin (papain or histamine induced itch); assay type: in vivo; settings: 2 to 5% topical, normal human adult volunteers
Procedure: Itch provoking pruritic compositions were prepared as follows: papain 0.5% solution was prepared by dissolving papain 50 mg in 10 ml of saline, and histamine 0.2% solution was prepared by dissolving histamine dihydrochloride 20 mg in 10 ml of saline. Itching was provoked or induced as follows: a pruritic composition in a volume of 0.05 ml containing papain or histamine dihydrochloride as a pruritic agent was topically applied on the flexor forearm of normal human adult volunteers and the skin site was gently pricked rapidly through the solution with a 26-gauge needle to the level of the papillary dermis as described by Bernstein et al. (J. E. Bernstein, R. M. Swift, K. Soltani and A. L. Lorincz: Antipruritic Effect of an Opiate Antagonist, Naloxone Hydrochloride in Journal of Investigative Dermatology 78, 82-83, 1982). This technique provoked or induced itch sensation at the test skin site within a few minutes following the topical application of the pruritic composition. After itch sensation had been induced a composition containing 2 to 5% N-ethyl phenyl-alpha-acetoxyacetamide, N-phenethyl phenyl-alpha-acetoxyacetamide or other phenyl-alpha-acyloxyacetamide derivatives of the instant invention was topically applied on the pruritic skin site. The vehicle alone cream containing no active ingredient was used as a control.

Compound | Anti-pruritic Effect
CC(=O)OC(C(=O)NCCc1ccccc1)(c1ccccc1)c1ccccc1 [N-phenethyl diphenyl-alpha-acetoxyacetamide] | substantial anti-pruritic effect

tested on: Eczemas, and Other Pruritic Disorders; assay: Topical anti-pruritic effect in patients with pruritic disorders; assay type: in vivo, human; settings: 2 to 5%, after initial anti-pruritic effect
Excerpt: Patients with various kinds of pruritic disorders participated in this study. The cases included atopic eczema, patchy eczema, chronic eczema of the hands, lichen simplex chronicus, contact allergic eczema, pruritus of the aged, pruritus of hepatic origin, pruritus ani, pruritus vulvae, scalp pruritus and pruritus of other disorders such as mycosis fungoides, psoriasis and pityriasis rubra pilaris.
Therapeutic compositions containing phenyl-alpha-acyloxyacetamides at 2 to 5% concentrations in cream, ointment, lotion or solution were prepared according to the Examples. The medicinal compositions were topically applied by the patient in an amount sufficient to cover the itching area of skin. Applications were made one to two times daily or as frequently as necessary and without occlusive dressings.
Two parameters have been used to compare degrees of anti-pruritic effect of phenyl-alpha-acyloxyacetamides. The first parameter is whether the relief of itching is complete (2+) or incomplete (1+). The second parameter is the number of hours the patient stays free of pruritus after the initial anti-pruritic effect. […] Therefore, the overall anti-pruritic effect of a compound may range from 2+ to 4+. […] 4+ for complete relief and lasting for more than 8 hours.

Compound | duration of anti-pruritic effect
CCC(=O)OC(C(=O)NCCc1ccccc1)(c1ccccc1)c1ccccc1 [N-phenethyl diphenyl-alpha-propionyloxyacetamide] | less than 8 hours

same assay, conditions: all patients tested

Compound | relief of itching (in words)
CCC(=O)OC(C(=O)NCCc1ccccc1)(c1ccccc1)c1ccccc1 [N-phenethyl diphenyl-alpha-propionyloxyacetamide] | completely abolished itch sensations

same assay, conditions: first category compounds, 2 to 5%

Compound | Anti-pruritic Effect
CC(=O)OC(C(=O)N(Cc1ccccc1)Cc1ccccc1)c1ccccc1 (stereo not drawn) [N,N-dibenzyl phenyl-alpha-acetoxyacetamide] | 3+
CCN(CC)C(=O)C(OC(C)=O)c1ccccc1 (stereo not drawn) [N,N-diethyl phenyl-alpha-acetoxyacetamide] | 4+ (complete relief and lasting for more than 8 hours)
COc1ccc(CCNC(=O)C(OC(C)=O)c2ccccc2)cc1OC (stereo not drawn) [N-(3,4 -dimethoxyphenethyl)phenyl-alpha-acetoxyacetamide] | 4+ (complete relief and lasting for more than 8 hours)
CC(=O)OC(C(=O)NCc1ccccc1)c1ccccc1 (stereo not drawn) [N-benzyl phenyl-alpha-acetoxyacetamide] | 4+ (complete relief and lasting for more than 8 hours)
CCNC(=O)C(OC(=O)Cc1ccccc1)c1ccccc1 (stereo not drawn) [N-ethyl phenyl-alpha-phenylacetoxyacetamide] | 4+ (complete relief and lasting for more than 8 hours)
CC(=O)OC(C(=O)NCCSCCO)c1ccccc1 (stereo not drawn) [N-hydroxyethylthioethylphenyl-alpha-acetoxyacetamide] | 3+
CC(=O)OC(C(=O)NC(C)C)c1ccccc1 (stereo not drawn) [N-isopropyl phenyl-alpha-acetoxyacetamide] | 3+
CNC(=O)C(OC(C)=O)c1ccccc1 (stereo not drawn) [N-methyl phenyl alpha-acetoxyacetamide] | 3+
CC(=O)OC(C(=O)NCc1ccc(Cl)cc1)c1ccccc1 (stereo not drawn) [N-p-chlorobenzyl phenyl-alpha-acetoxyacetamide] | 4+ (complete relief and lasting for more than 8 hours)
COc1ccc(CNC(=O)C(OC(C)=O)c2ccccc2)cc1 (stereo not drawn) [N-p-methoxybenzyl phenyl-alpha-acetoxyacetamide] | 4+ (complete relief and lasting for more than 8 hours)
COc1ccc(CCNC(=O)C(OC(C)=O)c2ccccc2)cc1 (stereo not drawn) [N-p-methoxyphenethyl phenyl-alpha-acetoxyacetamide] | 4+ (complete relief and lasting for more than 8 hours)
CCC(=O)OC(C(=O)NCCc1ccccc1)c1ccccc1 (stereo not drawn) [N-phenethyl phenyl-alpha-propionyloxyacetamide] | 3+
CC(=O)OC(C(=O)NC(C)(C)C)c1ccccc1 (stereo not drawn) [N-t-butyl phenyl-alpha-acetoxyacetamide] | 4+ (complete relief and lasting for more than 8 hours)

same assay, conditions: intermediate and related compounds

Compound | Anti-pruritic Effect
CC(=O)OC(C(=O)NCc1cccnc1)c1ccccc1 (stereo not drawn) [N-3'-picolyl phenyl-alpha-acetoxyacetamide] | 3+
CCN(CC)CCNC(=O)C(OC(C)=O)c1ccccc1 (stereo not drawn) [N-(N',N'-diethylaminoethyl)phenyl-alpha-acetoxyacetamide] | 3+
CC(=O)OC(C(=O)OC(C(=O)NCCc1ccccc1)c1ccccc1)c1ccccc1 (stereo not drawn) [N-phenethyl phenyl-alpha-(o-acetylmandeloyloxy)acetamide] | 3+
O=C(NCCc1ccccc1)C(O)c1ccccc1 (stereo not drawn) [N-phenethyl phenyl-alpha-hydroxyacetamide] | 3+

tested on: calming or sedative effects; assay: Tranquilizing effect, oral administration in dogs; assay type: in vivo; settings: not given
Procedure: Hairless mice, white hairy mice and dogs were used in these studies.
Three dogs weighing between 10 to 20 kg were given orally N-phenethyl phenyl-alpha-acetoxyacetamide or N-ethyl phenyl-alpha-acetoxyacetamide in gelating capsules at doses of 5 to 10 mg per kg.

Compound | soporific or drowsy effects
CN(C)CCOC(c1ccccc1)c1ccccc1 [Benadryl] | soporific and drowsy effects
CN1C(=O)CN=C(c2ccccc2)c2cc(Cl)ccc21 [Valium] | soporific and drowsy effects

same assay, conditions: test compounds 5 to 10 mg per kg

Compound | tranquilizing / sedative effect
CN(C)CCOC(c1ccccc1)c1ccccc1 [Benadryl] | substantial sedative effects
CN1C(=O)CN=C(c2ccccc2)c2cc(Cl)ccc21 [Valium] | substantial sedative effects
